Assay results taken from patent US5622983A, “N-substituted cycloalkyl and polycycloalkyl α-substituted Trp-Phe- and phenethylamine derivatives” (Warner-Lambert Company, priority 1995, dated 1997).

Experiments:
[1] = Withdrawal from long-term drug or alcohol treatment, mouse light/dark box test; type: in vivo; conditions: 24-hour withdrawal
Experimental: The effect of the compounds of the instant invention is illustrated, for example, in the mouse "light/dark box" test in FIGS. 5-12.
In FIG. 5, five animals were given nicotine, 0.1 mg/kg i.p.b.d. for 14 days. After a 24-hour withdrawal period, compound (20) was given at 1.0 mg/kg i.p.b.d.
FIG. 6 illustrates the effect of long-term treatment and withdrawal from nicotine using compound (20A). Five mice were given nicotine at 0.1 mg/kg i.p.b.d. for 14 days. After a withdrawal period of 24 hours, compound (20A) was given at 10 mg/kg i.p.b.d.
FIG. 7 illustrates the effect of long-term treatment and withdrawal from diazepam with intervention with compound (20). Five mice were given diazepam, at 10 mg/kg i.p.b.d. for seven days. Withdrawal was for a 24-hour period; compound 20 was given at 1.0 mg/kg i.p.b.d.
FIG. 8 illustrates the effect of compound (20A) on the long-term treatment and withdrawal from diazepam. Five mice were given diazepam at 10 mg/kg i.p.b.d. for seven days. After a withdrawal period of 24 hours, compound (20A) was given at 10 mg/kg i.p.b.d.
FIG. 9 illustrates the effect compound (20A) on the long-term treatment and withdrawal from alcohol. Five mice were given alcohol in drinking water 8% w/v for 14 days. After a withdrawal period of 24 hours, compound (20) was given at 1.0 mg/kg i.p.b.d.
Five mice were given alcohol in drinking water, 8% w/v for 14 days. After a withdrawal period of 24 hours, compound (20A) was given at 10 mg/kg i.p.b.d.
FIG. 11 illustrates the effectiveness in the long-term treatment and withdrawal from cocaine. Five mice were given cocaine as 1.0 mg/kg i.p.b.d. for 14 days.
Five mice were given cocaine at 1.0 mg/kg i.p.b.d. for 14 days after a withdrawal period of 24 hours, compound (20a) was given at 1.0 mg/kg i.p.b.d.

Central CCK Receptors = target: T1, Central CCK Receptors (Mus musculus, UniProt P56481); experiment: Binding to central CCK receptors (tritiated-pentagastrin displacement, cerebral cortical membranes); conditions: read-out: Binding to Central CCK Receptors Ki; displacement of 2 nM tritiated-pentagastrin, mouse cerebral cortical membranes
T1 sequence (P56481 1-453): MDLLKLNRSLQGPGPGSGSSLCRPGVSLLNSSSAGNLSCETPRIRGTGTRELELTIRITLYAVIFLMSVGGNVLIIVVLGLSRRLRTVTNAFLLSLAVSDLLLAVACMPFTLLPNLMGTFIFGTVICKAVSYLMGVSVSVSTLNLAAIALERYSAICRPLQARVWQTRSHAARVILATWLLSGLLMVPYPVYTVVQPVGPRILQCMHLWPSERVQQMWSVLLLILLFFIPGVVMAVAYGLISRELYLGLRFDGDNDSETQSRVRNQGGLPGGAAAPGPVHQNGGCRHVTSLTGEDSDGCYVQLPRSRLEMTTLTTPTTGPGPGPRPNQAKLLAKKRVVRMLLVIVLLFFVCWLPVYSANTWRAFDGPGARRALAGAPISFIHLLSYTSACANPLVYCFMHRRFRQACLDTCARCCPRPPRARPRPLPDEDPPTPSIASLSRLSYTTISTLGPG
Experimental: The biological activity of compounds of the present invention was evaluated employing an initial screening test which rapidly and accurately measured the binding of the tested compound to known CCK receptor sites.
The resulting suspension was centrifuged, the supernate was discarded, and the pellet was washed by resuspension in Tris-HCl buffer followed by recentrifugation.
In saturation studies, cerebral cortical membranes were incubated at 23° C. for 120 minutes in a final volume of 500 μliter of Hepes incubation buffer (pH 7.2) together with 0.2-20 nM tritiated-pentagastrin (Amersham International, England).
In each case, the nonspecific binding was defined as that persisting in the presence of the unlabeled octapeptide CCK26-33 (10^-6 M).
Following incubation, radioactivity bound to membranes was separated from that free in solution by rapid filtration through Whatman GF/B filters and washed three times with 4 mL of ice cold Tris-HCl buffer.
The specific binding to CCK receptor sites was defined as the total bound tritiated-pentagastrin minus the amount of tritiated-pentagastrin bound in the presence of 10^-6 octapeptide, CCK26-33.
The inhibition constant (Ki) of the test compound was then calculated according to the Cheng-Prusoff equation: [formula] where [L] is the concentration of radiolabel and Ka is the equilibrium dissociation constant.

[2] = Antagonism of intra-accumbens amphetamine hyperactivity (antipsychotic activity); type: in vivo, rat; conditions: 20 mg/kg or 30 mg/kg intraperitoneal; amphetamine 20 μg
Experimental: Male Sprague Dawley (CD) Bradford strain rats were used. The rats were housed in groups of five at a temperature of 21°±2° C. on a 12 hour light-dark cycle of lights-on between 07 hours 00 minutes and […]. Rats were fed CRM diet (Labsure) and allowed water ad libitum.
Rats were anesthetized with chloral hydrate (400 mg/kg SC) and placed in a Kopf stereotaxic frame. Chronically indwelling guide cannulae (constructedof stainless steel tubing 0.65 mm diameter held bilaterally in Parspex holders) were implanted using standard stereotaxic techniques to terminate 3.5 mm above the center of the nucleus accumbens (Ant. 9.4, Vert. 0.0, Lat. 1.6) or 5.0 mm above the central nucleus of the amygdala (Ant. 5.8, Vert. -1.8, Lat. ±4.5) (atlas of De Groot, 1959). The guides were kept patent during a 14-day recovery period using stainless steel stylers, 0.3 mm diameter, which extended 0.5 mmbeyond the guide tips.
Rats were manually restrained and the stylers removed. Intracerebral injection cannulae, 0.3 mm diameter, were inserted and drugs delivered in a volume of 0.5 μl over 5 seconds (a further 55 seconds was allowed for deposition) from Hamilton syringes attached via polythene tubing to the injection units. […]
The abilities of the compounds (20) and (20A) to inhibit the hyperactivity caused by the injection of amphetamine into the nucleus accumbens of the rat was measured. […]

## CC(Cc1c[nH]c2ccccc12)(NC(=O)OC1CC2CCC1(C)C2(C)C)C(=O)NCC(NC(=O)CCC(=O)O)c1ccccc1 (stereo not drawn) [Example 20A, [1S -[1α,2β[S*(S*)], 4α]]-4-[[2-[[3-(1H-indol-3-yl)-2-methyl-1-oxo-2-[[[(1,7,7-trimethylbicyclo[2.2.1]hept-2-yl)oxy]carbonyl]amino]propyl]amino]-1-phenylethyl]amino]-4-oxobutanoic acid]
[1]; alcohol 8% w/v in drinking water 14 days, compound 10 mg/kg i.p.b.d.
  time spent in the light section after withdrawal from alcohol (FIG. 10): increased time spent in the light section
[1]; cocaine 1.0 mg/kg i.p.b.d. 14 days, compound 1.0 mg/kg i.p.b.d.
  time spent in the light section after withdrawal from cocaine (FIG. 12): increase in time spent in the light section
[1]; diazepam 10 mg/kg i.p.b.d. seven days, compound 10 mg/kg i.p.b.d.
  time spent in the light section after withdrawal from diazepam (FIG. 8): demonstrates the effectiveness of the compound
[1]; nicotine 0.1 mg/kg i.p.b.d. 14 days, compound 10 mg/kg i.p.b.d.
  time spent in the light area after withdrawal from nicotine (FIG. 6): increase of time spent in the light area
Central CCK Receptors
  Ki: 3 nM
[2]
  hyperactivity caused by intra-accumbens injection of amphetamine: reduced the hyperactivity
